The test system of one assay is Mino cells. The assay is described as follows: Inhibitory activity on Mino cell proliferation (MTS). It is filed as cell-based. Conditions: Homo sapiens, 72 h or 168 h. On the procedure:
The anti-tumor efficacy of the compounds was tested by measuring their inhibitory effects on OCI-LY10 and Mino cell proliferation. OCI-LY10 and Mino cells were cultured in RPM-1640 medium containing […] fetal calf serum. OCI-LY10 and Mino cells were digested, inoculated in a 96-well plate at a cell concentration of 10000 cells/well, and incubated overnight at 37° C., 5% CO2. Compounds of different concentrations (1000 nM, 4-fold dilution, 8 points) were added to the 96-well plate and incubated for 72 h or 168 h at 37° C. and […], and then 20 μL of MTS was added to each well. After incubation for 2 h, 25 μl of 10% SDS was added to each well to terminate the reaction. The absorbance at 490 nm and 650 nm were measured with a microplate reader. IC50 was calculated using GraphPad Prism 5.0.

A further assay has as its target T1, BTK (Homo sapiens, UniProt Q06187).
T1 construct: endogenous in cells; host or cells: Mino cells
The assay is described as follows: BTK degradation activity test in Mino cells (Westernblot or Elisa). The assay is classed as cell-based. As to conditions: 24-72 h incubation. How it is done:
The Mino cell line cells are 0.5˜1 million/well in 6-well plates. The compounds are diluted to different concentrations, added to the plate, and after 24-72 h of incubation, the cells are collected. After the cells were lysed, the total protein concentration in each well was determined with a BCA kit. The amount of BTK is determined using the Westernblot or Elisa method.

T1 sequence (Q06187 whole entry): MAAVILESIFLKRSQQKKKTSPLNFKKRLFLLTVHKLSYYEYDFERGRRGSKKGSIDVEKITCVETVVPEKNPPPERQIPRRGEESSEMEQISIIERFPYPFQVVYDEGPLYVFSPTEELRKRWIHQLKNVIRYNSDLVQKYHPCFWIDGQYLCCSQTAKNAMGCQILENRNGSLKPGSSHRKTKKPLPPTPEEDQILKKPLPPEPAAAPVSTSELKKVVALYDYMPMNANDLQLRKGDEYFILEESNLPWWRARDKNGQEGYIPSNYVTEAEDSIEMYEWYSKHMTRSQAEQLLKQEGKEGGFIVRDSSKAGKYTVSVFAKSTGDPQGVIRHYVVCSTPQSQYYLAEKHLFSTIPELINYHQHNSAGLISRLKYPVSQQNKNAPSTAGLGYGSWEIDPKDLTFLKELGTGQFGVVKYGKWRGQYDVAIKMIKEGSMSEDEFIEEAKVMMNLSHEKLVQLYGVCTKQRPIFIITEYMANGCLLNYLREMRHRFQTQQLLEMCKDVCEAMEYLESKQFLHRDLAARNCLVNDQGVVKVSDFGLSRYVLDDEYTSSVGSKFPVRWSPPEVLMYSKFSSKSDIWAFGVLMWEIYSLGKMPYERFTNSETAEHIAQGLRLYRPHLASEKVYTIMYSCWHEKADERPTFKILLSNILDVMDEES

For orientation: IC50 means the midpoint of a concentration-inhibition curve. For orientation: DC50 means the midpoint of the concentration-degradation curve. A higher DC50 goes with degradation only at high concentration. As for `Cn1c(=O)n(C2CCC(=O)NC2=O)c2ccc(N3CCC(CN4CCC(c5ccc(Nc6nc(N7CCCCC7)nnc6C(N)=O)cc5)CC4)C3)cc21` (centres unmarked) [Compound 011, 5-((4-(1-((1-(1-(2,6-dioxopiperidin-3-yl)-3-methyl-2-oxo-2,3-dihydro-1H-benzo[d]imidazol-5-yl)pyrrolidin-3-yl)methyl)piperidin-4-yl)phenyl)amino)-3-(piperidin-1-yl)-1,2,4-triazine-6-carboxamide], the IC50 in the assay with Mino cells amounted to 4.2 nM. The DC50 on BTK is less than 10 nM.
The like results for `NC(=O)c1nnc(N2CCCCC2)nc1Nc1ccc(C2CCN(CC3CCN(c4ccc5c(=O)n(C6CCC(=O)NC6=O)ccc5c4)C3)CC2)cc1` (centres unmarked) [Compound 012, 5-((4-(1-((1-(2-(2,6-dioxopiperidin-3-yl)-1-oxo-1,2-dihydroisoquinolin-6-yl)pyrrolidin-3-yl)methyl)piperidin-4-yl)phenyl)amino)-3-(piperidin-1-yl)-1,2,4-triazine-6-carboxamide] were, in that order, 1.22 nM and less than 10 nM.
In the case of `NC(=O)c1nnc(N2CCCCC2)nc1Nc1ccc(C2CCN(CC3CCN(c4ccc5c(c4)CCN(C4CCC(=O)NC4=O)C5=O)C3)CC2)cc1` (centres unmarked) [Compound 013, 5-((4-(1-((1-(2-(2,6-dioxopiperidin-3-yl)-1-oxo-1,2,3,4-tetrahydroisoquinolin-6-yl)pyrrolidin-3-yl)methyl)piperidin-4-yl)phenyl)amino)-3-(piperidin-1-yl)-1,2,4-triazine-6-carboxamide], the IC50 in the assay with Mino cells stood at 3.37 nM. This molecule yielded a DC50 on BTK of less than 10 nM.
In the assay with Mino cells, `NC(=O)c1cnc(N2CCCCC2)nc1Nc1ccc(C2CCN(CC3CCN(c4ccc5c(c4)C(=O)N(C4CCC(=O)NC4=O)C5=O)C3)CC2)cc1` (centres unmarked) [Compound 033, 4-((4-(1-((1-(2-(2,6-dioxopiperidin-3-yl)-1,3-dioxoisoindolin-5-yl)pyrrolidin-3-yl)methyl)piperidin-4-yl)phenyl)amino)-2-(piperidin-1-yl) pyrimidine-5-carboxamide] came in with a 50% inhibitory concentration (IC50) of 9.1 nM. This molecule registered a DC50 on BTK of less than 10 nM.
As for `NC(=O)c1nnc(N2CCCCC2)nc1Nc1ccc(N2CCC(CN3CCN(c4ccc(N5CCC(=O)NC5=O)cc4)CC3)CC2)c(F)c1` [Compound 050, 5-((4-(4-((4-(4-(2,4-dioxotetrahydropyrimidin-1(2H)-yl)phenyl)piperazin-1-yl)methyl)piperidin-1-yl)-3-fluorophenyl)amino)-3-(piperidin-1-yl)-1,2,4-triazine-6-carboxamide], the 50% inhibitory concentration (IC50) with Mino cells worked out at 6.05 nM. On BTK, this molecule yielded a DC50 of less than 10 nM.
Take `Cc1cc(N2CCC(=O)NC2=O)ccc1N1CCC(CN2CCN(c3ccc(Nc4nc(N5CCCCC5)nnc4C(N)=O)cc3F)CC2)CC1` [Compound 084, 5-((4-(4-((1-(4-(2,4-dioxotetrahydropyrimidin-1(2H)-yl)-2-methylphenyl)piperidin-4-yl)methyl)piperazin-1-yl)-3-fluorophenyl)amino)-3-(piperidin-1-yl)-1,2,4-triazine-6-carboxamide]: in the assay with Mino cells, the IC50 worked out at 3.3 nM. The DC50 on BTK was less than 10 nM.
As to `NC(=O)c1nnc(N2CCCCC2)nc1Nc1ccc(N2CCN(CC3CCN(c4ccc(-c5ccc(=O)[nH]n5)cc4C(F)(F)F)CC3)CC2)c(F)c1` [Compound 087, 5-((3-fluoro-4-(4-((1-(4-(6-oxo-1,6-dihydropyridazin-3-yl)-2-(trifluoromethyl)phenyl)piperidin-4-yl)methyl)piperazin-1-yl)phenyl)amino)-3-(piperidin-1-yl)-1,2,4-triazine-6-carboxamide], in the assay with Mino cells, the midpoint of inhibition, the IC50, lay at 4.31 nM. For the same molecule, the DC50 at BTK was less than 10 nM.
At BTK, `CC(=O)N[C@@H]1CCCN(c2nnc(C(N)=O)c(Nc3ccc(N4CCN(CC5CCN(c6ccc(NC7CCC(=O)NC7=O)nc6)CC5)CC4)c(F)c3)n2)C1` (stereo partly drawn) [Compound 096, 3-((R)-3-acetamidopiperidin-1-yl)-5-((4-(4-((1-(6-((2,6-dioxopiperidin-3-yl)amino)pyridin-3-yl)piperidin-4-yl)methyl)piperazin-1-yl)-3-fluorophenyl)amino)-1,2,4-triazine-6-carboxamide] yielded a half-maximal degradation concentration (DC50) of less than 10 nM.
For the molecule `CC(=O)N[C@@H]1CCCN(c2nnc(C(N)=O)c(Nc3ccc(N4CCN(CC5CCN(c6ccc(NC7CCC(=O)NC7=O)c(F)c6)CC5)CC4)c(F)c3)n2)C1` (stereo partly drawn) [Compound 097, 3-((R)-3-acetamidopiperidin-1-yl)-5-((4-(4-((1-(4-((2,6-dioxopiperidin-3-yl)amino)-3-fluorophenyl)piperidin-4-yl)methyl)piperazin-1-yl)-3-fluorophenyl)amino)-1,2,4-triazine-6-carboxamide], on BTK, the DC50 was less than 10 nM.
`Cc1cc(N2CCC(CN3CCN(c4ccc(Nc5nc(N6CCOCC6)nnc5C(N)=O)cc4F)CC3)CC2)ccc1N1CCC(=O)NC1=O` [Compound 098, 5-((4-(4-((1-(4-(2,4-dioxotetrahydropyrimidin-1(2H)-yl)-3-methylphenyl)piperidin-4-yl)methyl)piperazin-1-yl)-3-fluorophenyl)amino)-3-morpholino-1,2,4-triazine-6-carboxamide]: the IC50 in the assay on Mino cells amounted to 3.11 nM. On BTK, this molecule came in with a DC50 of less than 10 nM.
For the molecule `NC(=O)c1nnc(N2CCOCC2)nc1Nc1ccc(N2CCN(CC3CCN(c4ccc(N5CCC(=O)NC5=O)cc4)CC3)CC2)c(F)c1` [Compound 099, 5-((4-(4-((1-(4-(2,4-dioxotetrahydropyrimidin-1(2H)-yl)phenyl)piperidin-4-yl)methyl)piperazin-1-yl)-3-fluorophenyl)amino)-3-morpholino-1,2,4-triazine-6-carboxamide], the DC50 at BTK is less than 10 nM.
The same measure, in the same setting: with `NC(=O)c1nnc(N2CCOCC2)nc1Nc1ccc(N2CCN(CC3CCN(c4ccc(C(=O)NC5CCC(=O)NC5=O)c(F)c4)CC3)CC2)c(F)c1` (centres unmarked) [Compound 101, 5-((4-(4-((1-(4-((2,6-dioxopiperidin-3-yl)carbamoyl)-3-fluorophenyl)piperidin-4-yl)methyl)piperazin-1-yl)-3-fluorophenyl)amino)-3-morpholino-1,2,4-triazine-6-carboxamide] the figure was less than 10 nM.
The same measure, in the same setting: under `NC(=O)c1nnc(N2CCOCC2)nc1Nc1ccc(N2CCN(CC3CCN(c4ncc(-c5ccc(=O)[nH]n5)cc4C(F)(F)F)CC3)CC2)c(F)c1` [Compound 102, 5-((3-fluoro-4-(4-((1-(5-(6-oxo-1,6-dihydropyridazin-3-yl)-3-(trifluoromethyl)pyridin-2-yl)piperidin-4-yl)methyl)piperazin-1-yl)phenyl)amino)-3-morpholino-1,2,4-triazine-6-carboxamide] stands less than 10 nM; under `NC(=O)c1nnc(N2CCOCC2)nc1Nc1ccc(N2CCN(CC3CCN(c4ccc(-c5ccc(=O)[nH]n5)cc4C(F)(F)F)CC3)CC2)c(F)c1` [Compound 103, 5-((3-fluoro-4-(4-((1-(4-(6-oxo-1,6-dihydropyridazin-3-yl)-2-(trifluoromethyl)phenyl)piperidin-4-yl)methyl)piperazin-1-yl)phenyl)amino)-3-morpholino-1,2,4-triazine-6-carboxamide], less than 10 nM.
For the molecule `NC(=O)c1nnc(N2CCOCC2)nc1Nc1ccc(N2CCN(CC3CCN(c4ccc(NC5CCC(=O)NC5=O)nc4)CC3)CC2)c(F)c1` (centres unmarked) [Compound 104, 5-((4-(4-((1-(6-((2,6-dioxopiperidin-3-yl)amino)pyridin-3-yl)piperidin-4-yl)methyl)piperazin-1-yl)-3-fluorophenyl)amino)-3-morpholino-1,2,4-triazine-6-carboxamide], the half-maximal degradation concentration (DC50) on BTK is less than 10 nM.

Values taken from patent publication US20260167620A1, “MULTIFUNCTIONAL COMPOUND CAPABLE OF DEGRADING BTK KINASE, AND COMPOSITION AND USE” (HANGZHOU HEALZEN THERAPEUTICS CO., LTD., priority 2021, published 2026).
